How the values were obtained:
duck salad = assay: Test B flood test duck salad; assay type: in vivo, Heteranthera limosa; conditions: Pre-emergence
Outline: (§1)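 Read-out is a visual response score from 0 (no effect) to 10 (complete control), assigned by comparison with untreated controls. Treatment was applied at the 2-leaf stage, and plants stayed in the greenhouse for twelve to sixteen days before scoring.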

rice = assay: Test B flood test rice; assay type: in vivo, Oryza sativa; conditions: Pre-emergence
Outline: as §1

corn = assay: Test B pre/postemergence corn; assay type: in vivo, Zea mays
Outline: (§2)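 Response is a visual 0-to-10 score relative to untreated plants, where 0 means no effect and 10 means complete control, taken twelve to sixteen days after application. Treatments went onto soil at planting and onto foliage of 1- to 4-leaf plants, using a surfactant-containing non-phytotoxic solvent.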

smallflower flatsedge = assay: Test B flood test smallflower flatsedge; assay type: in vivo, Cyperus difformis; conditions: Pre-emergence
Outline: as §1

bamyardgrass = assay: Test B flood test barnyardgrass; assay type: in vivo, Echinochloa crus-galli; conditions: Pre-emergence
Outline: as §1

crabgrass = assay: Test B pre/postemergence crabgrass; assay type: in vivo, Digitaria sanguinalis
Outline: as §2

bedstraw = assay: Test B pre/postemergence bedstraw; assay type: in vivo, Galium aparine
Outline: as §2

velvetleaf = assay: Test B pre/postemergence velvetleaf; assay type: in vivo, Abutilon theophrasti
Outline: as §2

blackgrass = assay: Test B pre/postemergence blackgrass; assay type: in vivo, Alopecurus myosuroides
Outline: as §2

wheat = assay: Test B pre/postemergence wheat; assay type: in vivo, Triticum aestivum
Outline: as §2

wild oat = assay: Test B pre/postemergence wild oat; assay type: in vivo, Avena fatua
Outline: as §2

purple nutsedge = assay: Test B pre/postemergence purple nutsedge; assay type: in vivo, Cyperus rotundus
Outline: as §2

giant foxtail = assay: Test B pre/postemergence giant foxtail; assay type: in vivo, Setaria faberii
Outline: as §2

cocklebur = assay: Test B pre/postemergence cocklebur; assay type: in vivo, Xanthium strumarium
Outline: as §2

surinam grass = assay: Test B pre/postemergence surinam grass; assay type: in vivo, Brachiaria decumbens
Outline: as §2

morningglory = assay: Test B pre/postemergence morningglory; assay type: in vivo, Ipomoea hederacea
Outline: as §2

[1] = Rate 1000 g/ha, scale 0 to 10 (0 no effect, 10 complete control)
[2] = Rate 125 g/ha, flood test species, scale 0 to 10 where 0 is no effect and 10 is complete control
[3] = Rate 250 g/ha, flood-test species, scale 0 to 10, 0 is no effect, 10 is complete control
[4] = Rate 500 g/ha, flood test species, scale 0 to 10 (0 no effect, 10 complete control)
[5] = Postemergence, Rate 125 g/ha, scale 0 to 10, 0 is no effect, 10 is complete control
[6] = Preemergence, Rate 62 g/ha, scale of 0 to 10 where 0 is no effect and 10 is complete control
[7] = Preemergence, Rate 250 g/ha, scale of 0 to 10 where 0 is no effect and 10 is complete control
[8] = Preemergence, Rate 500 g/ha, scale of 0 to 10 where 0 is no effect and 10 is complete control
[9] = Rate 62 g/ha, Postemergence, scale 0 to 10, 0 no effect, 10 complete control
[10] = Rate 500 g/ha, Postemergence, scale 0 to 10, 0 no effect, 10 complete control
[11] = Rate 250 g/ha, Postemergence, scale of 0 to 10 where 0 is no effect and 10 is complete control

Structure (SMILES): CC(C)N(C(=O)n1oc(=O)n(-c2ccc3ccccc3c2)c1=O)c1ccccc1 [Compound 332]
- Ducksalad plant response rating (duck salad; [1]): 0
- Ducksalad plant response rating (duck salad; [2]): 0
- Ducksalad plant response rating (duck salad; [3]): 0
- Ducksalad plant response rating (duck salad; [4]): 0
- Rice plant response rating (rice; [1]): 0
- Rice plant response rating (rice; [2]): 0
- Rice plant response rating (rice; [3]): 0
- Rice plant response rating (rice; [4]): 0
- Plant response rating, Corn (corn; [5]): 0
- Corn plant response rating (corn; [6]): 0
- Corn plant response rating (0 to 10 scale) (corn; Preemergence, Rate 125 g/ha): 0
- Corn plant response rating (corn; [7]): 0
- Corn plant response rating (corn; [8]): 0
- Corn plant response rating (corn; [9]): 0
- Plant response rating, Corn (corn; [10]): 0
- S. Flatsedge plant response rating (smallflower flatsedge; [1]): 0
- S. Flatsedge plant response rating (smallflower flatsedge; [2]): 0
- S. Flatsedge plant response rating (smallflower flatsedge; [3]): 0
- S. Flatsedge plant response rating (smallflower flatsedge; [4]): 0
- Barnyardgrass plant response rating (bamyardgrass; [1]): 0
- Barnyardgrass plant response rating (bamyardgrass; [2]): 0
- Barnyardgrass plant response rating (bamyardgrass; [3]): 0
- Barnyardgrass plant response rating (bamyardgrass; [4]): 0
- Plant response rating, Crabgrass (crabgrass; [5]): 1
- Crabgrass plant response rating (crabgrass; [6]): 0
- Crabgrass plant response rating (0 to 10 scale) (crabgrass; Preemergence, Rate 125 g/ha): 0
- Crabgrass plant response rating (crabgrass; [7]): 3
- Crabgrass plant response rating (crabgrass; [8]): 5
- Crabgrass plant response rating (crabgrass; [9]): 0
- Plant response rating, Crabgrass (crabgrass; [10]): 3
- Plant response rating, Bedstraw (bedstraw; [5]): 0
- Bedstraw plant response rating (bedstraw; [6]): 0
- Bedstraw plant response rating (0 to 10 scale) (bedstraw; Preemergence, Rate 125 g/ha): 0
- Bedstraw plant response rating (bedstraw; [7]): 0
- Bedstraw plant response rating (bedstraw; [9]): 0
- Plant response rating, Bedstraw (bedstraw; [11]): 0
- Plant response rating, Velvetleaf (velvetleaf; [5]): 0
- Velvetleaf plant response rating (velvetleaf; [6]): 0
- Velvetleaf plant response rating (0 to 10 scale) (velvetleaf; Preemergence, Rate 125 g/ha): 0
- Velvetleaf plant response rating (velvetleaf; [7]): 0
- Velvetleaf plant response rating (velvetleaf; [8]): 0
- Velvetleaf plant response rating (velvetleaf; [9]): 0
- Plant response rating, Velvetleaf (velvetleaf; [10]): 0
- Plant response rating, Blackgrass (blackgrass; [5]): 0
- Blackgrass plant response rating (blackgrass; [6]): 0
- Blackgrass plant response rating (0 to 10 scale) (blackgrass; Preemergence, Rate 125 g/ha): 0
- Blackgrass plant response rating (blackgrass; [7]): 0
- Blackgrass plant response rating (blackgrass; [8]): 0
- Blackgrass plant response rating (blackgrass; [9]): 0
- Plant response rating, Blackgrass (blackgrass; [11]): 0
- Plant response rating, Blackgrass (blackgrass; [10]): 0
- Plant response rating, Wheat (wheat; [5]): 0
- Wheat plant response rating (wheat; [6]): 0
- Wheat plant response rating (0 to 10 scale) (wheat; Preemergence, Rate 125 g/ha): 0
- Wheat plant response rating (wheat; [7]): 0
- Wheat plant response rating (wheat; [8]): 0
- Wheat plant response rating (wheat; [9]): 0
- Plant response rating, Wheat (wheat; [10]): 0
- Plant response rating, Wild oats (wild oat; [5]): 0
- Wild oats plant response rating (wild oat; [6]): 0
- Wild oats plant response rating (0 to 10 scale) (wild oat; Preemergence, Rate 125 g/ha): 0
- Wild oats plant response rating (wild oat; [7]): 0
- Wild oats plant response rating (wild oat; [8]): 0
- Wild oats plant response rating (wild oat; [9]): 0
- Plant response rating, Wild oats (wild oat; [10]): 0
- Plant response rating, Nutsedge (purple nutsedge; [5]): 0
- Nutsedge plant response rating (purple nutsedge; [6]): 0
- Nutsedge plant response rating (0 to 10 scale) (purple nutsedge; Preemergence, Rate 125 g/ha): 0
- Nutsedge plant response rating (purple nutsedge; [7]): 0
- Nutsedge plant response rating (purple nutsedge; [8]): 0
- Nutsedge plant response rating (purple nutsedge; [9]): 0
- Plant response rating, Nutsedge (purple nutsedge; [10]): 0
- Plant response rating, Giant foxtail (giant foxtail; [5]): 0
- Giant foxtail plant response rating (giant foxtail; [6]): 0
- Giant foxtail plant response rating (0 to 10 scale) (giant foxtail; Preemergence, Rate 125 g/ha): 1
- Giant foxtail plant response rating (giant foxtail; [7]): 4
- Giant foxtail plant response rating (giant foxtail; [8]): 7
- Giant foxtail plant response rating (giant foxtail; [9]): 0
- Plant response rating, Giant foxtail (giant foxtail; [10]): 0
- Plant response rating, Cocklebur (cocklebur; [5]): 0
- Cocklebur plant response rating (cocklebur; [6]): 0
- Cocklebur plant response rating (0 to 10 scale) (cocklebur; Preemergence, Rate 125 g/ha): 0
- Cocklebur plant response rating (cocklebur; [7]): 0
- Cocklebur plant response rating (cocklebur; [8]): 0
- Cocklebur plant response rating (cocklebur; [9]): 0
- Plant response rating, Cocklebur (cocklebur; [10]): 0
- Plant response rating, B. signalgrass (surinam grass; [5]): 0
- B. signalgrass plant response rating (surinam grass; [6]): 0
- B. signalgrass plant response rating (0 to 10 scale, 0 is no effect, 10 is complete control) (surinam grass; Preemergence, Rate 125 g/ha): 0
- B. signalgrass plant response rating (surinam grass; [7]): 0
- B. signalgrass plant response rating (surinam grass; [8]): 0
- B. signalgrass plant response rating (surinam grass; [9]): 0
- Plant response rating, B. signalgrass (surinam grass; [11]): 0
- Plant response rating, B. signalgrass (surinam grass; [10]): 0
- Plant response rating, Morningglory (morningglory; [5]): 0
- Morningglory plant response rating (morningglory; [6]): 0
- Morningglory plant response rating (0 to 10 scale) (morningglory; Preemergence, Rate 125 g/ha): 0
- Morningglory plant response rating (morningglory; [7]): 0
- Morningglory plant response rating (morningglory; [8]): 0
- Morningglory plant response rating (morningglory; [9]): 0
- Plant response rating, Morningglory (morningglory; [10]): 0
